The structures appear in SMILES notation. Values after ≈ are worked out from the molar mass of the structure shown.

3 compounds from ChEMBL document CHEMBL5532636 (Eur J Med Chem, 2023) can be followed below.

Series [1] has as its system SARS-CoV-2. In words: Antiviral activity against SARS-CoV-2 TY/WK-521 infected in African green monkey Vero E6 cells assessed as reduction in viral replication preincubated with cell culture for 1 hr and further infected with virus for 2 hrs followed by compound washout and subsequent addition of medium containing compounds measured for 48 hrs post-infection by qRT-PCR analysis. The class given is functional, organism-based. Particulars: Severe acute respiratory syndrome coronavirus 2, TY/WK-521, Vero C1008.

Series [2] can be described thus: Solubility of compound in water. The class given is physicochemical.
The target of series [3] is Angiotensin-converting enzyme (Homo sapiens, UniProt P12821). Kind of series: Inhibition of ACE (unknown origin) using Hippuryo-histidyl-leucine as substrate incubated for 40 mins by absorbance based assay.
Series [4] is described as follows: Cytotoxicity against African green monkey Vero E6 cells assessed as reduction in cell viability incubated for 3 days by MTT assay. The note with it: chlorocebus sabaeus, time 3 day. The class given is toxicity, cell-based, Vero C1008.
Series [5] is described as follows: Cmax in Sprague-Dawley rat at 224 umol/kg, po measured for 2160 mins. Particulars: in vivo, 36 h, dose 224 µmol/kg. The class given is ADME, organism-based.
A short description of series [6]: Oral bioavailability in rat. The class given is ADME, organism-based. Particulars: in vivo.
Series [7] has as its target Angiotensin-converting enzyme 2 (Homo sapiens) (UniProt Q9BYF1). In words: Inhibition of ACE2 in human SAEC cells at 25 uM incubated for 6 days by ELISA relative to control. Type of series: cell-based. Particulars: time 6.0 day.
Series [8] shares this target. Kind of series: Synergistic inhibition of ACE2 in human SAEC cells at 25 uM incubated for 6 days in presence of ascorbic acid by ELISA relative to control. The class given is cell-based. Particulars: time 6.0 day.
The nature of series [9]: AUC (0 to 360 min) in Sprague-Dawley rat at 224 umol/kg, po. The note with it: in vivo, 6 h, dose 224 µmol/kg. Type of series: ADME.
The target in series [10] is T1, Xanthine dehydrogenase/oxidase (Homo sapiens, UniProt P47989). In words: Inhibition of xanthine oxidase (unknown origin).
Series [11] can be described thus: Cytotoxicity against human Calu-3 cells incubated for 4 days by MTS assay. Type of series: toxicity, cell-based. Particulars: time 4 day.
The subject of series [12] is SARS-CoV-2. Kind of series: Antiviral activity against SARS-CoV-2 NCCP 43326 infected in African green monkey Vero cells assessed as reduction in viral infection preincubated with cell culture for 30 mins and further infected with virus measured after 72 hrs by plaque reduction neutralization test method. The class given is functional, organism-based. Particulars: Severe acute respiratory syndrome coronavirus 2, NCCP 43326, Vero.

The nature of series [13]: Inhibition of SARS-CoV-2 nsp15 endonuclease activity using 5'-FAM-dArUdAdAdA-TAMRA-3' as substrate measure for 1 hr by fluorescence based assay. Also noted: species or system Severe acute respiratory syndrome coronavirus 2.
For series [14], the system named is Influenza A virus. Kind of series: Antiviral activity against Influenza A virus H1N1 FM/1/47 infected in BALB/c mouse assessed as macrophage polarization in BALF at 80 mg/kg/day, po qd for 7 days by flow cytometry (reference value: 95 %). The class given is functional. The note with it: time 7 day.
Series [15] can be described thus: Antioxidant activity assessed as DPPH radical scavenging activity at 25 uM measured after 2 mins by ESR spectroscopy relative to control. The class given is functional.
The next series concerns the target T2, Renin (Homo sapiens, UniProt P00797).
T2 sequence (P00797 whole entry): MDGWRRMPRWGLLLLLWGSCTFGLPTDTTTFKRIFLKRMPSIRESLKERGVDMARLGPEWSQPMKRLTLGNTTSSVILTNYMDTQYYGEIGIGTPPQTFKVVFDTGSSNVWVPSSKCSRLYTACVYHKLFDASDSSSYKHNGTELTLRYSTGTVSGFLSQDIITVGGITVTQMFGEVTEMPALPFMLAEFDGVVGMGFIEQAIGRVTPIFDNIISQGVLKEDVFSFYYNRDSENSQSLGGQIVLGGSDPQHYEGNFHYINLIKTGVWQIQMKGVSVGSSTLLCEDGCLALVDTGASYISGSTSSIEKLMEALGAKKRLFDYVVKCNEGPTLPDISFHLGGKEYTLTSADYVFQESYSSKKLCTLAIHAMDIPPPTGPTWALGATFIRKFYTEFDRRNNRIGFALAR
Kind of series: Inhibition of recombinant human renin using Arg-Glu(EDANS)-lle-His-Pro-Phe-His-Leu-Val-lle-His-Thr-Lys(dabcyl)-Arg as substrate incubated for 5 to 10 mins by fluorescence based assay.

Series [16] is described as follows: Cytotoxicity against African green monkey Vero cells. Type of series: toxicity, cell-based. The note with it: chlorocebus sabaeus.
Series [17] is described as follows: Cytotoxicity against African green monkey Vero cells incubated for 4 days by MTS assay. The class given is toxicity, cell-based. The note with it: chlorocebus sabaeus, time 4 day.
For series [18], the target named is Xanthine dehydrogenase/oxidase (Bos taurus, UniProt P80457). Kind of series: Inhibition of bovine milk xanthine oxidase using xanthine as substrate preincubated for 30 mins followed by substrate addition measured for 200 secs by spectrophotometry.
Series [19] in a line: Antioxidant activity assessed as DPPH radical scavenging activity at 50 uM measured after 2 mins by ESR spectroscopy relative to control. Type of series: functional.
Series [20] concerns Influenza A virus. Kind of series: Antiviral activity against Influenza A virus H1N1 FM/1/47 infected in BALB/c mouse assessed as decrease in recruitment of M1-polarized CD11b+ and F4/80+ macrophages in BALF at 80 mg/kg/day, po qd for 7 days by flow cytometry relative to control. The class given is functional. The arrangement: scale not given: the % may be the effect or the level left. The note with it: time 7 day.

The test system of series [21] is SARS-CoV-2. Kind of series: Antiviral activity against SARS-CoV-2 infected in African green monkey Vero cells assessed as reduction in viral replication. Type of series: functional, organism-based. The note with it: Severe acute respiratory syndrome coronavirus 2, Vero.
In series [22] the target is T1, Xanthine dehydrogenase/oxidase. In words: Inhibition of xanthine oxidase (unknown origin) using xanthine as substrate preincubated for 30 mins followed by substrate addition by spectrophotometry.
Series [23] is described as follows: Apparent permeability in human Caco-2 cells measured for 30 to 180 mins by HPLC analysis. Type of series: ADME, cell-based. Particulars: time 30-180 min.
Series [24] addresses Replicase polyprotein 1ab (Severe acute respiratory syndrome coronavirus 2, UniProt P0DTD1). Kind of series: Inhibition of SARS-CoV-2 PLpro using Ubiquitin-AMC as substrate by continuous kinetic assay.
Series [25] has as its target Replicase polyprotein 1ab (Severe acute respiratory syndrome coronavirus 2) (UniProt P0DTD1). Kind of series: Binding affinity to SARS-CoV-2 nsp14 assessed as change in melting temperature preincubated for 20 mins followed by heating by thermal shift assay.
Series [26] can be described thus: Antioxidant activity assessed as DPPH radical scavenging activity at 200 uM measured after 2 mins by ESR spectroscopy relative to control. The class given is functional.
A further series has as its system Bovine coronavirus. In words: Antiviral activity against B-CoV infected in human HRT-18 cells assessed as inhibition in viral replication at 25 ug/ml preincubated with cell culture for 1 hr and further infected with virus for 1 hr followed by removal of virus particles and subsequent replacement of medium containing compound measured for 96 hrs post-infection by RT-PCR analysis relative to control. Type of series: functional, HRT-18 cell line. The note with it: Betacoronavirus 1, HRT-18, time 98 hrs.

Series [27] relates to SARS-CoV-2. In words: Inhibition of SARS-CoV-2 pseudovirus entry in human Huh-7 cells at 30 uM preincubated with cell culture for 1 hr followed by pseudovirus infection measured after 48 hrs by luciferase reporter gene assay relative to control. The note with it: Severe acute respiratory syndrome coronavirus 2, Huh-7, time 49 hrs. Type of series: functional.
The nature of series [28]: Drug metabolism in Sprague-Dawley rat assessed as circulating drug conjugates by measuring AUC (0 to 360 min) at 37 umol/kg, iv. Type of series: ADME. The note with it: in vivo, 6 h, dose 37 µmol/kg.
The test system of the next series is Human coronavirus OC43. Kind of series: Antiviral activity against HCoV-OC43 infected in human HRT-18 cells assessed as inhibition in viral replication at 12.5 ug/ml preincubated with cell culture for 1 hr and further infected with virus for 1 hr followed by removal of virus particles and subsequent replacement of medium containing compound measured for 96 hrs post-infection by RT-PCR analysis relative to control. The class given is functional, HRT-18 cell line. Particulars: Betacoronavirus 1, HRT-18, time 97 hrs.

The nature of series [29]: Inhibition of C-terminal GST-tagged full-length recombinant SARS-CoV 3CLpro expressed in Escherichia coli BL21(DE3) using MCA-AVLQSGFR-Lys(Dnp)-Lys-NH2 as substrate preincubated for 10 mins followed by substrate addition measured for 3.5 mins by FRET assay. Also noted: species or system Severe acute respiratory syndrome-related coronavirus.
Series [30] in a line: Aqueous solubility of compound. The class given is physicochemical. Particulars: buffer.
Series [31] in a line: Cytotoxicity against African green monkey Vero cells by CCK8 assay. The class given is toxicity, cell-based. Particulars: chlorocebus sabaeus.
A short description of series [32]: AUC (0 to 360 min) in Sprague-Dawley rat at 37 umol/kg, iv. Type of series: ADME. The note with it: in vivo, 6 h, dose 37 µmol/kg.
The subject of series [33] is Severe acute respiratory syndrome coronavirus 2. Kind of series: Binding affinity to SARS-CoV-2 nsp12 assessed as change in melting temperature preincubated for 20 mins followed by heating by thermal shift assay.
Series [34] shares this test system. In words: Binding affinity to SARS-CoV-2 nsp5 assessed as change in melting temperature preincubated for 20 mins followed by heating by thermal shift assay.
The nature of series [35]: Oral bioavailability in monkey. Type of series: ADME, organism-based, Macaca mulatta. The note with it: rhesus monkey, in vivo.
Series [36] concerns the target Replicase polyprotein 1ab (Severe acute respiratory syndrome coronavirus 2) (UniProt P0DTD1). Kind of series: Inhibition of SARS-CoV-2 3CLpro at 100 ug/ml preincubated for 30 mins followed by substrate addition measured after 4 hrs by fluorescence assay relative to control. Particulars: dose 100.0 µg/ml, time 4.5 hrs.
For series [37] the target is unchanged. In words: Inhibition of full-length SARS-CoV-2 PLpro expressed in Escherichia coli BL21(DE3) using RLRGG-AMC as substrate at 50 uM preincubated for 10 mins followed by substrate addition measured for 5 mins by FRET assay relative to control. Particulars: time 15.0 min.

T1 sequence (P47989 whole entry): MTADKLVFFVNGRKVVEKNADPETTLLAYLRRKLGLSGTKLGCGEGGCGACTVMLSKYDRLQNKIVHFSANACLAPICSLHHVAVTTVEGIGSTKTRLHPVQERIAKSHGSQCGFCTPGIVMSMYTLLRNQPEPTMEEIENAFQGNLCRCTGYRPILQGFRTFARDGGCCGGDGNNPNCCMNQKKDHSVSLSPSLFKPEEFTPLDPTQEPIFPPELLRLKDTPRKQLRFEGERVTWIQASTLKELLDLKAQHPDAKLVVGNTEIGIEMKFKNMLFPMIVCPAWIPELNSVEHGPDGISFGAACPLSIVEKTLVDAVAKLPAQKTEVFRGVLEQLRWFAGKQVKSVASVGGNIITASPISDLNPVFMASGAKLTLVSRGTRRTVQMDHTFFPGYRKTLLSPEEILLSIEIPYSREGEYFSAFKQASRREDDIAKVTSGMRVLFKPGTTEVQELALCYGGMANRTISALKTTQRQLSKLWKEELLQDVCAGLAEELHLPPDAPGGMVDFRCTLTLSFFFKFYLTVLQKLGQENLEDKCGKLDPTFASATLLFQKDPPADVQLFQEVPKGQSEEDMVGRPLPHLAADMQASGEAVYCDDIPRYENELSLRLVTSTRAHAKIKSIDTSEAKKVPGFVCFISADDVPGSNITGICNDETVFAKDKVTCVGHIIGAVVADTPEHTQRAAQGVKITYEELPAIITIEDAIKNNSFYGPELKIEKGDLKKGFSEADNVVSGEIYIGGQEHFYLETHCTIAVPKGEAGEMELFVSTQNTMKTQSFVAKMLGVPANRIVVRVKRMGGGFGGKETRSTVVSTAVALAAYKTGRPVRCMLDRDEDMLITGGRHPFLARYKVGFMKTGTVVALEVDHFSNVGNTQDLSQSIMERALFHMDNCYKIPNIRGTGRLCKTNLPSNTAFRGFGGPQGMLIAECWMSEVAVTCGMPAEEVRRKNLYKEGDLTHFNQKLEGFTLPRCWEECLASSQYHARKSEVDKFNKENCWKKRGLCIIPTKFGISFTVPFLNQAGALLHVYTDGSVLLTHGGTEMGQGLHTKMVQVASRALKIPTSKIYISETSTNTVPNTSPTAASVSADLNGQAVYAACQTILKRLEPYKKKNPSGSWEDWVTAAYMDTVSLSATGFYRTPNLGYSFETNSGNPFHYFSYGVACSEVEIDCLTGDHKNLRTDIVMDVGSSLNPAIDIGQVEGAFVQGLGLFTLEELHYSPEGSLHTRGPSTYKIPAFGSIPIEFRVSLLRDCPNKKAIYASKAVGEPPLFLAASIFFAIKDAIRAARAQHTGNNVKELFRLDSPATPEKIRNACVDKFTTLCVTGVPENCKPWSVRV
Angiotensin-converting enzyme 2 (Homo sapiens), sequence (Q9BYF1 18-805 limits assumed): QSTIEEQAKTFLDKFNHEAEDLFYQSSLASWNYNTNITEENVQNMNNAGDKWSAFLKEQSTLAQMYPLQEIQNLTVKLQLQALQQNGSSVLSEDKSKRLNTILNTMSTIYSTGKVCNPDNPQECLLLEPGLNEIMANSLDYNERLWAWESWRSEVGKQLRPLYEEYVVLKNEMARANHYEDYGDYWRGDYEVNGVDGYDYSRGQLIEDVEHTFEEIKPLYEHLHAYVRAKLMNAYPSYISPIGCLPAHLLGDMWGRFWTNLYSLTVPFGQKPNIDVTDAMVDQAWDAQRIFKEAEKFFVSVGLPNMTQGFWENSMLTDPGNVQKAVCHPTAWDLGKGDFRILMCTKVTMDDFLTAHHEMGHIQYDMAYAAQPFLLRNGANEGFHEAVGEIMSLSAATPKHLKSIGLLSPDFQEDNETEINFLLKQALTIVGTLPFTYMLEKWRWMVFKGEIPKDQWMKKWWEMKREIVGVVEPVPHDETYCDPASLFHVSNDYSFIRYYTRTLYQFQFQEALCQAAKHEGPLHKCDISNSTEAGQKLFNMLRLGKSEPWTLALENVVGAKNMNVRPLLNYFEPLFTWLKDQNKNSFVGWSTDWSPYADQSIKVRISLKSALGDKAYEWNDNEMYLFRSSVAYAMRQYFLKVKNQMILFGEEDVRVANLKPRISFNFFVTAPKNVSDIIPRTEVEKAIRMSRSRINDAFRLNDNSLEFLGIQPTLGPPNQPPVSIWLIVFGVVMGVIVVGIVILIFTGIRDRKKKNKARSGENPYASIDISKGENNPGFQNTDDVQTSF
Xanthine dehydrogenase/oxidase (Bos taurus, UniProt P80457), sequence (P80457 whole entry): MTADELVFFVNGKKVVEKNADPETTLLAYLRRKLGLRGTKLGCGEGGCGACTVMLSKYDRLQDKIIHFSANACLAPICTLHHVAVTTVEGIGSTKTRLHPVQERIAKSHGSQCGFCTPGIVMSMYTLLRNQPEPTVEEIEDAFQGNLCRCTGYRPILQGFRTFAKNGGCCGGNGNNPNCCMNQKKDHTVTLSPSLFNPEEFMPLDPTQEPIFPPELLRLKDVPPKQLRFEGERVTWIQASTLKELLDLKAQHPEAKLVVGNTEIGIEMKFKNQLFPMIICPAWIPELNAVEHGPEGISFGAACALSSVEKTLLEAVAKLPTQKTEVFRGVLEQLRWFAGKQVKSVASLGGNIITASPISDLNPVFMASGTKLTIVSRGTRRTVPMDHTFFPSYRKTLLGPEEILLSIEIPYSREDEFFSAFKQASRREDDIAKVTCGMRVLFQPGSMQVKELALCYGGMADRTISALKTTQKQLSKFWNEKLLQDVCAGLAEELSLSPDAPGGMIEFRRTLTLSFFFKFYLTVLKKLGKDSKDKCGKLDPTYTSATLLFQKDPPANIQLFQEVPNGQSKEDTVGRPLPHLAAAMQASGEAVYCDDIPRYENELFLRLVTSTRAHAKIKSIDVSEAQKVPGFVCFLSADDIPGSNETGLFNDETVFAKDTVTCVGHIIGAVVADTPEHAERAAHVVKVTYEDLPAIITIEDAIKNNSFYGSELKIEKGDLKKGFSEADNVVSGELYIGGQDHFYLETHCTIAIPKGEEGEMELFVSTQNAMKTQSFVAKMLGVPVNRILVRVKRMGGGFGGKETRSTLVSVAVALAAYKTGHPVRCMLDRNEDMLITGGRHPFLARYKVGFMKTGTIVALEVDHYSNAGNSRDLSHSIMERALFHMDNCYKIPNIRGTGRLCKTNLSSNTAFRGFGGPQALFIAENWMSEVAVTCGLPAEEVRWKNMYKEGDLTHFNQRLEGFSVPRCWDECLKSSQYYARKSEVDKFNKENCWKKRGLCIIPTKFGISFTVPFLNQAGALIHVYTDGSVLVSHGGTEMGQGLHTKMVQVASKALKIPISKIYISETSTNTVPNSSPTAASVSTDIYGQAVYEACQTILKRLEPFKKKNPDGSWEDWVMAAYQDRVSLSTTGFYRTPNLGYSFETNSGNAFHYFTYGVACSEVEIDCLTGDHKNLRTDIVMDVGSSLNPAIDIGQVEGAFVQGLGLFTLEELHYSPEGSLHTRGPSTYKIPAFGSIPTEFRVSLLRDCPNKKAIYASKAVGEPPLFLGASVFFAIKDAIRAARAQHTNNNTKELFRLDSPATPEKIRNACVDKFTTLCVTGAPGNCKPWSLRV
Angiotensin-converting enzyme, sequence (P12821 whole entry): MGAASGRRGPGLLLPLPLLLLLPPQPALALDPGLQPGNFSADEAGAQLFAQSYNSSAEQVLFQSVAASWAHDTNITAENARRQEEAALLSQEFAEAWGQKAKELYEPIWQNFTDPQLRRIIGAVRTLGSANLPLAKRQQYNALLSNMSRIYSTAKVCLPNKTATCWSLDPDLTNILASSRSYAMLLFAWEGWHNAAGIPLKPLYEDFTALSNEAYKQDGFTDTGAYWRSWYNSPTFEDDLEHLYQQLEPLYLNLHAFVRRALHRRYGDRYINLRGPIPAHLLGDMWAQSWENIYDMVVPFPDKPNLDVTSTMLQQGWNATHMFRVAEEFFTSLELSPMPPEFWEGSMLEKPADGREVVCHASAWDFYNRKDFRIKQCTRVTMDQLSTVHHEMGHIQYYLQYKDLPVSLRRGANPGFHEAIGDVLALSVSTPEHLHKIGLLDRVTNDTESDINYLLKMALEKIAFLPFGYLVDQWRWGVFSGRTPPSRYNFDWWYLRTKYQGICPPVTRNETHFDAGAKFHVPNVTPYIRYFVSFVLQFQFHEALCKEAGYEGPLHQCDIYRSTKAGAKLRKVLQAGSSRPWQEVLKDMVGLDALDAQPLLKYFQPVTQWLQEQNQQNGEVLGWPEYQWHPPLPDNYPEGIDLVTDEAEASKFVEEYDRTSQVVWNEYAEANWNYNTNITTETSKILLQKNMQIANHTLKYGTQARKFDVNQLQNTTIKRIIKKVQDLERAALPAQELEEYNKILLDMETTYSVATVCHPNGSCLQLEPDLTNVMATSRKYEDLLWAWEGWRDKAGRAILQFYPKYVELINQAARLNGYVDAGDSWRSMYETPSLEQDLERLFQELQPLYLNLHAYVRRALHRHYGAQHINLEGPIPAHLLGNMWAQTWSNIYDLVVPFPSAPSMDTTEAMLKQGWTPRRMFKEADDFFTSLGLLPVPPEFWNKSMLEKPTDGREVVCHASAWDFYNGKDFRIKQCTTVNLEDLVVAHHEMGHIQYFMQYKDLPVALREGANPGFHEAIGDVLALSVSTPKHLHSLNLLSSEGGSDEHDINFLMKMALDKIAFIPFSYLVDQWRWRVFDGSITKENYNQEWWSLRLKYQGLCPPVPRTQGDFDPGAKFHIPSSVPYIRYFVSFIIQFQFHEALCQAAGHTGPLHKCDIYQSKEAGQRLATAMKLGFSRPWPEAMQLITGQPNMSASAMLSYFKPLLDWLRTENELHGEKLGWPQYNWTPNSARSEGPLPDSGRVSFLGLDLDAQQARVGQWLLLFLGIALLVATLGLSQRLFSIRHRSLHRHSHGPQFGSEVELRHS

For `O=C(O)[C@H]1O[C@@H](Oc2cc3oc(-c4ccccc4)cc(=O)c3c(O)c2O)[C@H](O)[C@@H](O)[C@@H]1O` [BAICALIN], the results for the concentration giving a half-maximal response (EC50) with SARS-CoV-2 [1], in the series with SARS-CoV-2 [12] and with SARS-CoV-2 [21] were 8.8 µM, 83.3 µM and 10.3 µM, respectively. Also, the concentration in solution in series [2] (solubility) was 67 µg/mL (≈ 150 µM). The half-maximal inhibitory concentration (IC50) amounted to 2240 µM in series [3]; 157 µM in series [10]; 7.98 µM in [13]; 120 µM on Renin; 123 µM in [18]; 55.6 µM in series [22]. The 50% cytotoxic concentration (CC50) at 72 h in series [4] was > 1000 µM. This compound also had a Cmax in [5] of 2.9 nM/ml. Moreover, in [6], the F is 2.2%. Further, the inhibition in series [7] worked out at 75%; in [8], 82%. Also, in [9], the AUC came to 1943.7 nM.min/ml. Also, the 50% cytotoxic concentration (CC50) at 96 h in [11] and in [17] was > 100 µM in each case. Also, the Activity is 97% with Influenza A virus [14], 42% in series [15], 17% in [19] and ~90% in the series with Influenza A virus [20]. Besides, the 50% cytotoxic concentration (CC50) in [16] was > 200 µM. For the same compound, the apparent permeability coefficient (Papp) in [23] is 0.037 ×10⁻⁶ cm/s.

Turning to `CC(=O)Nc1ccc(C)c(C(=O)N[C@H](C)c2cccc3ccccc23)c1`, the IC50 in series [24] is 1.73 µM.

Take `O=c1cc(-c2ccccc2)oc2cc(O)c(O)c(O)c12` [BAICALEIN]: the ΔTm is 1.5 °C in [25], 3.9 °C in [33] and 0.9 °C in [34]. Besides, the Activity in series [26] is > 50%; in series [15] it was 69%; in [19] it was 55%. Moreover, the Cmax in series [5] stood at 13.6 nM/ml. Besides, in the series on Bovine coronavirus, the inhibition at 25 µg/mL turned out to be 89.8%. Further, the inhibition at 30 µM in the series on SARS-CoV-2 [27] came to 14.6%. Further, the results for the AUC in [28], in [9] and in series [32] were 927.2 nM.min/ml, 2980.5 nM.min/ml and 297.6 nM.min/ml, respectively. The values for the IC50 in series [10], in series [29] and in [18] were 3.12 µM, 1.18 µM and 7.54 µM, respectively. Also, the inhibition at 12.5 µg/mL in the series on Human coronavirus OC43 worked out at 100%. The CC50 at 96 h in series [11] came out at 9.1 µM; in [17], 8.6 µM. Also, in series [30], the solubility is 16.8 µg/mL (≈ 62.2 µM). For the same compound, the half-maximal cytotoxic concentration (CC50) in series [31] was > 500 µM; in series [16], > 200 µM. Also, in series [35], the bioavailability was determined as 13.1%. Further, the inhibition in series [36] was 94.7%; in series [37], < 50%.
